# Reference: patent publication US10799507B2, “5-(7H-pyrrolo[2,3-d]pyrimidin-4-yl)-5-azaspiro[2.5]octane-8-carboxylic acid derivatives as novel JAK kinase inhibitors” (LEO Pharma A/S, priority 2017, dated 2020)
# Assays:
# Type in all cases: biochemical
# JAK3 = JAK3 (Homo sapiens (Human), UniProt P52333); assay: JAK kinase assay (HTRF), JAK3; details: catalytic domain, ATP at Km (2 μM)
# Method: (§1) Human baculovirus-expressed JAK1, 2, 3 and TYK2 were purchased from Carna Biosciences, Inc. All four purified enzymes contain only the catalytic domain. JAK1 (aa 850-1154) and TYK2 (aa 871-1187) are expressed with an N-terminally fused GST-tag, and JAK2 and JAK3 with an N-terminally fused His-tag.
# (§2) Inhibition of phosphorylation of a synthetic peptide was measured in an HTRF-based assay using the TK substrate-Biotin from the Cisbio HTRFKinEASE TK kit. First, 2 μl of TK solution (TK substrate-biotin in kinase buffer [1× enzymatic buffer from HTRFKinEASE TK kit, 1 mM DTT]) is added to a plate containing 1 μl prediluted compound (final assay concentration DMSO: 0.75%). Then, 5 μl kinase-ATP mix (prepared in kinase buffer) is added to the wells and the plates are incubated at RT for 20-30 min. For all four kinases a concentration of ATP that corresponded to the Km for ATP was used. The final concentrations of buffers, substrate, kinase and ATP were: JAK1: 50 mM Hepes buffer pH 7.0, 0.01% BSA, 10 mM MgCl2, 1 mM DTT, 7 μM ATP, 50 nM SEB, 1 μM TK Substrate-Biotin and 5 ng JAK1; JAK2: 50 mM Hepes buffer pH 7.0, 0.01% BSA, 5 mM MgCl2, 1 mM DTT, 4 μM ATP, 1 μM TK Substrate-Biotin and 0.1 ng JAK2; JAK3: 50 mM Hepes buffer pH 7.0, 0.01% BSA, 5 mM MgCl2, 1 mM DTT, 2 μM ATP, 1 μM TK Substrate-Biotin and 0.3 ng JAK3; TYK2: 50 mM Hepes buffer pH 7.0, 0.01% BSA, 5 mM MgCl2, 1 mM DTT, 13 μM ATP, 50 nM SEB, 1 μM TK Substrate-Biotin and 0.8 ng TYK2. Thereafter, the kinase reaction is stopped by adding 4 μl detection mix (final concentrations: 50 mM Hepes buffer pH 7.0, 0.01% BSA, 0.8 M KF, 20 mM EDTA, 42 nM Streptavidin-XL665 and 1:400 STK Ab Cryptate) and the plates are incubated overnight in the dark. The HTRF signal is read using an Envision plate reader.
# (§3) In Table 1 selected JAK kinase inhibitory activities are listed along with analytical tR and observed M+H^+ data (UPLC-MS method 7).
# JAK1 = JAK1 (Homo sapiens (Human), UniProt P23458); assay: JAK kinase assay (HTRF), JAK1; details: catalytic domain, ATP at Km (7 μM)
# Sequence of JAK1 (P23458 850-1154): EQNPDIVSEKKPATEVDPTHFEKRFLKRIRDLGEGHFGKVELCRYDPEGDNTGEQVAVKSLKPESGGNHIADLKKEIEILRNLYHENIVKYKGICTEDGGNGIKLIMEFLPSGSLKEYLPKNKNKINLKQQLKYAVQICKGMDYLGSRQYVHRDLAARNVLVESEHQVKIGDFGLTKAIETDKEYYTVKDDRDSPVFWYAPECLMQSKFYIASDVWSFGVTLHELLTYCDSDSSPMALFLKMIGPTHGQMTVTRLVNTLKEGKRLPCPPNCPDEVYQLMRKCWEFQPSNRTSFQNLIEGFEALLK
# Method: as §1, §2
# TYK2 = TYK2 (Homo sapiens (Human), UniProt P29597); assay: JAK kinase assay (HTRF), TYK2; details: catalytic domain, ATP at Km (13 μM)
# Sequence of TYK2 (P29597 871-1187): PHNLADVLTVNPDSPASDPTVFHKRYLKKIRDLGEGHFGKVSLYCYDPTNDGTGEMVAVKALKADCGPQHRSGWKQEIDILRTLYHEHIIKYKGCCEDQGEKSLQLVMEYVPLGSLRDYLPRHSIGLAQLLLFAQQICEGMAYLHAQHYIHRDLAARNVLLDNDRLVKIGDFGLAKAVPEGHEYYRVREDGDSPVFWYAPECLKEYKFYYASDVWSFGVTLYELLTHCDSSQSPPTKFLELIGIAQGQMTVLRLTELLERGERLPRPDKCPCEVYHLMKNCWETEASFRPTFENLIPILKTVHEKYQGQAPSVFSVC
# Method: as §1, §2, §3
# JAK2 = JAK2 (Homo sapiens (Human), UniProt O60674); assay: JAK kinase assay (HTRF), JAK2; details: catalytic domain, ATP at Km (4 μM)
# Sequence of JAK2 (O60674 849-1124): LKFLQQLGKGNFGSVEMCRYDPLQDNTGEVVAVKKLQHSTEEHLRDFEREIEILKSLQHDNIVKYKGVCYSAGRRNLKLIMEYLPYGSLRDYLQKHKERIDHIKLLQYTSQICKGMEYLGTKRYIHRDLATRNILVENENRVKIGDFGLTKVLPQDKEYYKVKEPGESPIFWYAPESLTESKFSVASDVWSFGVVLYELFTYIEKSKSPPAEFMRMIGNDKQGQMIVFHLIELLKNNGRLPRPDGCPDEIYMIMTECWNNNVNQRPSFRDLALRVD
# Method: as §1, §2
# Sequence of JAK3 (P52333 822-1111): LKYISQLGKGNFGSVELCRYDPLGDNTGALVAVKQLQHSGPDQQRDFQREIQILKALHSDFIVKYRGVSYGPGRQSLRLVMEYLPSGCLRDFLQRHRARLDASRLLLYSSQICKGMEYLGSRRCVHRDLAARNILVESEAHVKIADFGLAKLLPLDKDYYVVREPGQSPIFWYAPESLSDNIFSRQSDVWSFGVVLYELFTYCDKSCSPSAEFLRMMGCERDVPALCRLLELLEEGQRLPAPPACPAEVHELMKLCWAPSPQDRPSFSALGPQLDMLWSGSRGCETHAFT
Structure (SMILES),EC50 (JAK3),EC50 (JAK1),EC50 (TYK2),EC50 (JAK2)
"O=C(N[C@H](CO)C(=O)OC1CCCC1)[C@H]1CCN(c2ncnc3[nH]ccc23)CC12CC2 [Example 96, cyclopentyl (2R)-3-hydroxy-2-[[(8S)-5-(7H-pyrrolo[2,3-d]pyrimidin-4-yl)-5-azaspiro[2.5]octane-8-carbonyl]amino]propanoate]",59.2 nM,8.7 nM,250 nM,28.7 nM
"N#Cc1cccc([C@H](O)CNC(=O)[C@H]2CCN(c3ncnc4[nH]ccc34)CC23CC3)c1 [Example 106, (8S)-N-[(2S)-2-(3-cyanophenyl)-2-hydroxy-ethyl]-5-(7H-pyrrolo[2,3-d]pyrimidin-4-yl)-5-azaspiro[2.5]octane-8-carboxamide]",44.7 nM,10.2 nM,110 nM,25.2 nM
"C[C@H](NC(=O)[C@H]1CCN(c2ncnc3[nH]ccc23)CC12CC2)[C@@H](O)c1cccc(F)c1 [Example 150, (8S)-N-[(1S,2S)-2-(3-fluorophenyl)-2-hydroxy-1-methyl-ethyl]-5-(7H-pyrrolo[2,3-d]pyrimidin-4-yl)-5-azaspiro[2.5]octane-8-carboxamide]",3.1 nM,2.7 nM,21 nM,
"C[C@@H](NC(=O)[C@H]1CCN(c2ncnc3[nH]ccc23)CC12CC2)c1ccc(C#N)cc1F [Example 101, (8S)-N-[(1R)-1-(4-cyano-2-fluoro-phenyl)ethyl]-5-(7H-pyrrolo[2,3-d]pyrimidin-4-yl)-5-azaspiro[2.5]octane-8-carboxamide]",157 nM,9.3 nM,516 nM,72.8 nM
"O=C(NC[C@H](O)c1ccc(F)cn1)[C@H]1CCN(c2ncnc3[nH]ccc23)CC12CC2 [Example 46, (8S)-N-[(2S)-2-(5-fluoro-2-pyridyl)-2-hydroxy-ethyl]-5-(7H-pyrrolo[2,3-d]pyrimidin-4-yl)-5-azaspiro[2.5]octane-8-carboxamide]",23.8 nM,3.1 nM,48.1 nM,8.8 nM
"N#C[C@H]1CC[C@H](CNC(=O)C2CCN(c3ncnc4[nH]ccc34)CC23CC3)C1 (stereo partly drawn) [Example 83, N-[[(1S,3S)-3-cyanocyclopentyl]methyl]-5-(7H-pyrrolo[2,3-d]pyrimidin-4-yl)-5-azaspiro[2.5]octane-8-carboxamide]",44.3 nM,6.8 nM,390 nM,22.6 nM
"O=C(N[C@H](CO)C(=O)OCC1CCCC1)[C@H]1CCN(c2ncnc3[nH]ccc23)CC12CC2 [Example 87, cyclopentylmethyl (2R)-3-hydroxy-2-[[(8S)-5-(7H-pyrrolo[2,3-d]pyrimidin-4-yl)-5-azaspiro[2.5]octane-8-carbonyl]amino]propanoate]",43 nM,7.2 nM,124 nM,25.5 nM
"C[C@@H](NC(=O)C1CCN(c2ncnc3[nH]ccc23)CC12CC2)c1ccc(F)c(F)c1 (stereo partly drawn) [Example 113, N-[(1R)-1-(3,4-difluorophenyl)ethyl]-5-(7H-pyrrolo[2,3-d]pyrimidin-4-yl)-5-azaspiro[2.5]octane-8-carboxamide]",51.2 nM,11.6 nM,,19.4 nM
"COc1cccc([C@@H](C)NC(=O)C2CCN(c3ncnc4[nH]ccc34)CC23CC3)c1 (stereo partly drawn) [Example 139, N-[(1R)-1-(3-methoxyphenyl)ethyl]-5-(7H-pyrrolo[2,3-d]pyrimidin-4-yl)-5-azaspiro[2.5]octane-8-carboxamide]",99.3 nM,39.2 nM,,61.2 nM
"COc1cc([C@@H](C)NC(=O)C2CCN(c3ncnc4[nH]ccc34)CC23CC3)ccc1F (stereo partly drawn) [Example 143, N-[(1R)-1-(4-fluoro-3-methoxy-phenyl)ethyl]-5-(7H-pyrrolo[2,3-d]pyrimidin-4-yl)-5-azaspiro[2.5]octane-8-carboxamide]",199 nM,45.1 nM,,90.4 nM
"C[C@@H](NC(=O)C1CCN(c2ncnc3[nH]ccc23)CC12CC2)c1cccc(F)c1 (stereo partly drawn) [Example 134, N-[(1R)-1-(3-fluorophenyl)ethyl]-5-(7H-pyrrolo[2,3-d]pyrimidin-4-yl)-5-azaspiro[2.5]octane-8-carboxamide]",171 nM,32.8 nM,,80.6 nM
"COc1cc(F)ccc1[C@@H](C)NC(=O)C1CCN(c2ncnc3[nH]ccc23)CC12CC2 (stereo partly drawn) [Example 131, N-[(1R)-1-(4-fluoro-2-methoxy-phenyl)ethyl]-5-(7H-pyrrolo[2,3-d]pyrimidin-4-yl)-5-azaspiro[2.5]octane-8-carboxamide]",247 nM,24.6 nM,,30.3 nM
"C[C@@H](NC(=O)C1CCN(c2ncnc3[nH]ccc23)CC12CC2)c1ccc(F)c(C#N)c1 (stereo partly drawn) [Example 123, N-[(1R)-1-(3-cyano-4-fluoro-phenyl)ethyl]-5-(7H-pyrrolo[2,3-d]pyrimidin-4-yl)-5-azaspiro[2.5]octane-8-carboxamide]",63.9 nM,16.3 nM,,21.4 nM
"N#Cc1cccc(CNC(=O)C2CCN(c3ncnc4[nH]ccc34)CC23CC3)c1 (stereo not drawn) [Example 70, N-[(3-cyanophenyl)methyl]-5-(7H-pyrrolo[2,3-d]pyrimidin-4-yl)-5-azaspiro[2.5]octane-8-carboxamide]",32.6 nM,5.5 nM,,8.6 nM
"COc1cncc([C@@H](C)NC(=O)C2CCN(c3ncnc4[nH]ccc34)CC23CC3)c1 (stereo partly drawn) [Example 144, N-[(1R)-1-(5-methoxy-3-pyridyl)ethyl]-5-(7H-pyrrolo[2,3-d]pyrimidin-4-yl)-5-azaspiro[2.5]octane-8-carboxamide]",157 nM,48.5 nM,,80.6 nM
"N#Cc1ccc([C@H](O)CNC(=O)[C@@H]2CCN(c3ncnc4[nH]ccc34)CC23CC3)cc1 [Example 142, (8R)-N-[(2S)-2-(4-cyanophenyl)-2-hydroxy-ethyl]-5-(7H-pyrrolo[2,3-d]pyrimidin-4-yl)-5-azaspiro[2.5]octane-8-carboxamide]",278 nM,42.7 nM,,179 nM
"CC(NC(=O)C1CCN(c2ncnc3[nH]ccc23)CC12CC2)c1ccc(F)cc1 (stereo not drawn) [Example 61, N-[1-(4-fluorophenyl)ethyl]-5-(7H-pyrrolo[2,3-d]pyrimidin-4-yl)-5-azaspiro[2.5]octane-8-carboxamide]",22.1 nM,4.3 nM,,7.2 nM
"C[C@H](NC(=O)[C@H]1CCN(c2ncnc3[nH]ccc23)CC12CC2)[C@@H](O)c1cccnc1 [Example 151, (8S)-N-[(1S,2S)-2-hydroxy-1-methyl-2-(3-pyridyl)ethyl]-5-(7H-pyrrolo[2,3-d]pyrimidin-4-yl)-5-azaspiro[2.5]octane-8-carboxamide]",29.7 nM,10.9 nM,184 nM,
"COc1ccc([C@H](C)NC(=O)C2CCN(c3ncnc4[nH]ccc34)CC23CC3)cc1 (stereo partly drawn) [Example 66, N-[(1S)-1-(4-methoxyphenyl)ethyl]-5-(7H-pyrrolo[2,3-d]pyrimidin-4-yl)-5-azaspiro[2.5]octane-8-carboxamide]",40.7 nM,4.8 nM,,8.3 nM
"C[C@@H](NC(=O)C1CCN(c2ncnc3[nH]ccc23)CC12CC2)c1cccc(C#N)c1 (stereo partly drawn) [Example 117, N-[(1R)-1-(3-cyanophenyl)ethyl]-5-(7H-pyrrolo[2,3-d]pyrimidin-4-yl)-5-azaspiro[2.5]octane-8-carboxamide]",73.8 nM,12.4 nM,,21.6 nM
"COc1ccc([C@@H](C)NC(=O)C2CCN(c3ncnc4[nH]ccc34)CC23CC3)cc1F (stereo partly drawn) [Example 124, N-[(1R)-1-(3-fluoro-4-methoxy-phenyl)ethyl]-5-(7H-pyrrolo[2,3-d]pyrimidin-4-yl)-5-azaspiro[2.5]octane-8-carboxamide]",144 nM,18.6 nM,,59.7 nM
"C[C@H](NC(=O)[C@H]1CCN(c2ncnc3[nH]ccc23)CC12CC2)[C@@H](O)c1ccccc1 [Example 152, (8S)-N-[(1S,2S)-2-hydroxy-1-methyl-2-phenyl-ethyl]-5-(7H-pyrrolo[2,3-d]pyrimidin-4-yl)-5-azaspiro[2.5]octane-8-carboxamide]",5.8 nM,2.7 nM,27.7 nM,
